Reference: article PMC11711049 (Cancer Science, 2024)

Tested on: patients with advanced gastric cancer and cholangiocarcinoma
Test: Safety assessments
Assay type: in vivo, human
[1] = 16 evaluable patients, 140 mg once daily

## CNC(=O)n1ccc2cc(Oc3ccnc(NC(=O)c4ccc(C5CCN(CCO)CC5)cc4)c3)c(OCCOC)cc21 [Tasurgratinib]
140 mg once daily, N = 16
  Malaise, TEAEs All grades: 2 (12.5) n (%)
  Malaise, TEAEs Grade ≥3: 0 (0.0) n (%)
  Malaise, TRAEs All grades: 2 (12.5) n (%)
  Malaise, TRAEs Grade ≥3: 0 (0.0) n (%)
  Nail disorder, TEAEs All grades: 2 (12.5) n (%)
  Nail disorder, TEAEs Grade ≥3: 0 (0.0) n (%)
  Nail disorder, TRAEs All grades: 2 (12.5) n (%)
  Nail disorder, TRAEs Grade ≥3: 0 (0.0) n (%)
  Nasopharyngitis, TEAEs All grades: 2 (12.5) n (%)
  Nasopharyngitis, TEAEs Grade ≥3: 0 (0.0) n (%)
  Nasopharyngitis, TRAEs All grades: 0 (0.0) n (%)
  Nasopharyngitis, TRAEs Grade ≥3: 0 (0.0) n (%)
  PPE syndrome, TEAEs All grades: 10 (62.5) n (%)
  PPE syndrome, TEAEs Grade ≥3: 0 (0.0) n (%)
  PPE syndrome, TRAEs All grades: 10 (62.5) n (%)
  PPE syndrome, TRAEs Grade ≥3: 0 (0.0) n (%)
  Paronychia, TEAEs All grades: 9 (56.3) n (%)
  Paronychia, TEAEs Grade ≥3: 0 (0.0) n (%)
  Paronychia, TRAEs All grades: 8 (50.0) n (%)
  Paronychia, TRAEs Grade ≥3: 0 (0.0) n (%)
  Platelet count decreased, TEAEs All grades: 2 (12.5) n (%)
  Platelet count decreased, TEAEs Grade ≥3: 0 (0.0) n (%)
  Platelet count decreased, TRAEs All grades: 1 (6.3) n (%)
  Platelet count decreased, TRAEs Grade ≥3: 0 (0.0) n (%)
  Pruritus, TEAEs All grades: 2 (12.5) n (%)
  Pruritus, TEAEs Grade ≥3: 0 (0.0) n (%)
  Pruritus, TRAEs All grades: 2 (12.5) n (%)
  Pruritus, TRAEs Grade ≥3: 0 (0.0) n (%)
  Pyrexia, TEAEs All grades: 3 (18.8) n (%)
  Pyrexia, TEAEs Grade ≥3: 0 (0.0) n (%)
  Pyrexia, TRAEs All grades: 1 (6.3) n (%)
  Pyrexia, TRAEs Grade ≥3: 0 (0.0) n (%)
  Stomatitis, TEAEs All grades: 6 (37.5) n (%)
  Stomatitis, TEAEs Grade ≥3: 1 (6.3) n (%)
  Stomatitis, TRAEs All grades: 6 (37.5) n (%)
  Stomatitis, TRAEs Grade ≥3: 0 (0.0) n (%)
  Tumor pain, TEAEs All grades: 2 (12.5) n (%)
  Tumor pain, TEAEs Grade ≥3: 1 (6.3) n (%)
  Tumor pain, TRAEs All grades: 0 (0.0) n (%)
  Tumor pain, TRAEs Grade ≥3: 0 (0.0) n (%)
  Tumor‐associated fever, TEAEs All grades: 2 (12.5) n (%)
  Tumor‐associated fever, TEAEs Grade ≥3: 0 (0.0) n (%)
  Tumor‐associated fever, TRAEs All grades: 0 (0.0) n (%)
  Tumor‐associated fever, TRAEs Grade ≥3: 0 (0.0) n (%)
  Vomiting, TEAEs All grades: 2 (12.5) n (%)
  Vomiting, TEAEs Grade ≥3: 1 (6.3) n (%)
  Vomiting, TRAEs All grades: 0 (0.0) n (%)
  Vomiting, TRAEs Grade ≥3: 0 (0.0) n (%)
  Weight decreased, TEAEs All grades: 2 (12.5) n (%)
  Weight decreased, TEAEs Grade ≥3: 0 (0.0) n (%)
  Weight decreased, TRAEs All grades: 0 (0.0) n (%)
  Weight decreased, TRAEs Grade ≥3: 0 (0.0) n (%)
[1]
  any‐grade TEAE: ALT increased: 18.8%
  any‐grade TEAE: AST increased: 25.0%
  any‐grade TEAE: abdominal distension: 25.0%
  any‐grade TEAE: anemia: 25.0%
  any‐grade TEAE: blood alkaline phosphatase increased: 18.8%
  any‐grade TEAE: blood creatinine increased: 31.3%
  any‐grade TEAE: constipation: 18.8%
  any‐grade TEAE: decreased appetite: 43.8%
  any‐grade TEAE: diarrhea: 37.5%
  any‐grade TEAE: dry mouth: 18.8%
  any‐grade TEAE: dry skin: 18.8%
  any‐grade TEAE: dysgeusia: 37.5%
  any‐grade TEAE: hyperphosphatemia: 100%
  any‐grade TEAE: hypoalbuminemia: 18.8%
  any‐grade TEAE: palmar‐plantar erythrodysesthesia (PPE) syndrome: 62.5%
  any‐grade TEAE: paronychia: 56.3%
  any‐grade TEAE: pyrexia: 18.8%
  any‐grade TEAE: stomatitis: 37.5%
16 patients, 140 mg once daily
  any‐grade treatment‐related TEAE: ALT increased: 12.5%
  any‐grade treatment‐related TEAE: AST increased: 18.8%
  any‐grade treatment‐related TEAE: PPE syndrome: 62.5%
  any‐grade treatment‐related TEAE: blood creatinine increased: 18.8%
  any‐grade treatment‐related TEAE: decreased appetite: 12.5%
  any‐grade treatment‐related TEAE: diarrhea: 25.0%
  any‐grade treatment‐related TEAE: dry mouth: 18.8%
  any‐grade treatment‐related TEAE: dry skin: 18.8%
  any‐grade treatment‐related TEAE: dysgeusia: 31.3%
  any‐grade treatment‐related TEAE: hyperphosphatemia: 100%
  any‐grade treatment‐related TEAE: malaise: 12.5%
  any‐grade treatment‐related TEAE: nail disorder: 12.5%
  any‐grade treatment‐related TEAE: paronychia: 50.0%
  any‐grade treatment‐related TEAE: pruritus: 12.5%
  any‐grade treatment‐related TEAE: stomatitis: 37.5%
  grade ≥3 treatment‐related TEAE: AST increased: 1 n
  grade ≥3 treatment‐related TEAE: lipase increased: 1 n
  grade ≥3 treatment‐related TEAE: retinopathy: 1 n
  patients who experienced a TEAE of grade ≥3: 68.8%
Five of 16 patients, 140 mg once daily
  patients with treatment‐emergent SAEs: 31.3%
In five patients, 140 mg once daily
  total treatment‐emergent serious AEs (SAEs) reported: 11
N = 2
  eye disorder: dry eye: 12.5%
Once daily
  recommended dose for subsequent phase II evaluation: 140 mg
One patient (cholecystitis acute and septic shock, not related)
  patients with TEAEs leading to discontinuation of the study drug: 6.3%
Six of 16 patients
  patients with dose reductions due to treatment‐related TEAEs: 37.5%
Thirteen events in seven patients
  patients with eye disorder events: 43.8%
Two of 16 patients, 140 mg once daily
  patients who experienced grade ≥3 treatment‐related TEAEs: 12.5%
